In paper PMC8750417, “Intracellular Amplifiers of Reactive Oxygen Species Affecting Mitochondria as Radiosensitizers” (Cancers, 2021):

What was measured:
[1] = Solubility in RPMI 1640 medium, precipitation seen by bright field optical microscopy; conditions: DMSO 1%
Procedure: The latter medium was selected, since we used it for the cellular assays. […] Then we monitored the formation of (not detectable in the previous experiment) aggregated species in prodrug solutions that appeared transparent (concentrations < 50 µM) by using dynamic light scattering. […]
Solubility of drugs in aqueous buffers
Observing prodrug precipitation by using bright field optical microscopy […]
glutamine (1 %), and penicillin/streptomycin (1 %) was filled into 96-well microtiter plates (100 µL for each well) and compounds in DMSO stock solution (1 µL) were added. Each well was monitored by using bright field optical microscopy both immediately after […]

Jurkat cells = test: Total intracellular ROS (CM-DCFH-DA), Jurkat; type: cell-based, human; conditions: 1 h
Procedure: Monitoring total intracellular ROS (tROS)
A2780 cells were seeded in RPMI 1640 medium containing 5% FBS, 1% L-glutamine and 1% penicillin/streptomycin in a 24-well microtiter plate (total volume 0.5 mL) at a density of 200 cells/µL one day before the experiment. On the day of the experiment, the cells were washed twice with DPBS buffer and the medium was replaced with HBSS (Hanks' Balanced Salt solution, 500 μL). CM-DCFH-DA (5-(6-)chloromethyl-2',7'- dichlorodihydrofluorescein diacetate, Thermo- Fisher) solution (0.1 mM in DMSO, 5 μL) was added (final concentration 1 µM) and the cells were incubated in the dark chamber filled with CO2 (5%) at 37 °C for 15 min. […] Finally, the fluorescence of live cells (λex = 488 nm, λem = 525 nm) in the suspensions was determined by using flow cytometry (Figure 4A, 5C).
Intracellular ROS release in Jurkat cells was monitored analogously (Figure S58).
Figure S58. […] OY-axis “Fluorescence”: the increase of the mean fluorescence (λex = 488 […]

For CC1(C)OB(c2ccc(COC(=O)N(Cc3cn(Cc4ccc(Cn5cc(Cc6ccccc6)nn5)cc4)nn3)[c-]3cccc3)cc2)OC1(C)C.[Fe+2].c1cc[cH-]c1 [2c], the Solubility ([1]; 48 h incubation in RPMI 1640, FBS 5%, first signs of precipitation) was 30 µM, the “first signs of precipitation” value ([1]; immediately after dilution in RPMI 1640, FBS 5%) was 30 µM and the “total ROS (tROS) vs background” value (Jurkat cells) was “significantly higher than its background levels”.
